Assay [1] has as its system p-ERK in AsPC-1 cells (KRAS^G12D mutation, pancreatic cancer). Put plainly: AsPC-1 cell p-ERK inhibition test, Experimental Example 2. The note with it: Homo sapiens, ASPC1, read-out: AsPC-1 p-ERK IC50 (nM).
Procedure: 1640 medium, penicillin/streptomycin antibiotics were purchased from Gibco, and fetal bovine serum was purchased from Biosera. CellTiter-Glo (Cell Viability Chemiluminescence Detection Reagent) reagent was purchased from Promega. AsPC-1 cell line was purchased from ATCC, Envision Multi-Tag Analyzer (PerkinElmer).
AsPC-1 (KRAS^G12D mutation, pancreatic cancer) cells were seeded in ultra-low adsorption 96-well blackwall plate, 80 μL cell suspension per well, containing 10,000 AsPC-1 cell lines from ATCC cells. Plates were incubated overnight in a carbon dioxide incubator.
The test compound was diluted 8 concentrations with a 5-fold drain, i.e., from 2 mM to 25.6 nM, and a double replicate well experiment was set up. Add 78 μL of culture medium to the intermediate plate, and transfer 2 μL of gradient diluted compound per well to the intermediate plate according to the corresponding positions. Mix well and transfer 20 μL of each well to the cell plate. […] Another cell plate was prepared, and the signal value was read as the maximum value (Max value in the equation below) on the day of dosing to participate in the data analysis.
Each 100 μL of cell viability chemiluminescence detection reagent was added to the cell plate and incubated at room temperature for 30 minutes to stabilize the luminescence signal. Use multi-label analyzer for reading. […]
In assay [2] the test system is p-ERK of KRAS^G12D mutant AsPC-1 cells. Put plainly: AsPC-1 cell p-ERK inhibition test (HTRF), Experimental Example 1. In kind it is cell-based. The note with it: Homo sapiens, ASPC1, 3 hours compound incubation. The protocol:
Experimental Example 1. AsPC-1 Cell p-ERK Inhibition Test
The inhibitory activity of the compound on p-ERK levels of KRAS^G12D-mutant pancreatic cancer AsPC-1 cells was assessed by HTRF.
ASPC-1 cells were purchased from ATCC; RPMI-1640 medium was purchased from Gibco; Fetal Bovine Serum was purchased from Hyclone; Advanced Phospho-ERK1/2 (THR202/TYR204) KIT was purchased from Bioauxilium—
ASPC-1 cells were seeded in a 384-well cell culture plate with a white bottom, 8 μL of cell suspension per well, containing 7,500 cells per well, and the cell plates were placed in a carbon dioxide incubator and incubated at 37° C. overnight;
The test compound was diluted to 3 mM with 100% DMSO as the first concentration, and then diluted to ten concentrations of 3000, 1000, 300, 100, 30, 10, 3, 1, 0.3, 0.1 μM with a pipette. Take 2 μL of compound and add 198 μL of cell starvation medium. After mixing well, take 15 μL of compound solution and add 35 μL of cell starvation medium and mix well. Then add 4 μL of compound solution in each well to the corresponding cell plate well. Place the cell plate back in the carbon dioxide incubator for continued incubation for 3 hours. At this time, the compound concentration is 3,000, 1,000, 300, 100, 30, 10, 3, 1, 0.3, 0.1 nM. […]
After the end of incubation, use a multi-label analyzer to read HTRF excitation: 320 nm, emission: 615 nm, 665 nm; […]
(TR-FRET usually uses a lanthanide donor and a delayed reading to cut background.)

Counter-ions that a name gives are not always drawn.

One may read the IC50 as the midpoint of a concentration-inhibition curve. With `C=C1CN2CCC[C@@]2(COc2nc3c(c(N4CC5CCC(C4)N5)n2)CO[C@H](c2c(F)c(N)cc(C#CCl)c2C(F)(F)F)C3)C1` [Trifluoroacetate of Compound 7], the IC50 in assay [1] was found to be 24.9 nM.

On to `C=C1CN2CCC[C@@]2(COc2nc3c(c(N4CC5CCC(CO)(C4)N5)n2)CO[C@H](c2c(F)c(N)cc(C#CC)c2C(F)(F)F)C3)C1` (some centres unmarked) [Hydrochloride of Compound 1], for which, in assay [2], the IC50 worked out at 164 nM.

Values taken from patent US20250228854A1, “HETEROCYCLIC SUBSTITUTED PYRIMIDOPYRAN COMPOUNDS AND THEIR APPLICATIONS” (priority 2023, published 2025).
